Assay [1] has as its target Neisseria polysaccharea amylosucrase 1G5A (parent SEQ ID NO: 13) variant F290K (Neisseria polysaccharea, UniProt Q9ZEU2, F298K/G545D). As to the kind of experiment: Kinetic parameters towards sucrose donor, variant F290K. The class given is biochemical. As to conditions: F290K could not be saturated with sucrose. As to the method: Production and purification of AS variants were performed as previously described (ref. 45). […] The enzymes were desalted by size exclusion chromatography using P6DG columns (GE Healthcare Biosciences) at +4° C. and stored in elution buffer (50 mM Tris-HCl, pH 7.0, 150 mM NaCl) at −80° C. The protein content was determined by micro-Bradford method, using bovine serum albumin as standard (ref. 56).
All assays were performed at 30° C. in 50 mM Tris buffer, pH=7.0. For the acceptor reactions, F290D, F290K and ASNPwt (1G5A) were tested on α-D-GlcpNAc-OAll.
Enzyme assays were carried out in a total volume of 2 mL containing pure enzyme (0.115 mg and 0.106 mg when using ASNPwt and F290K, respectively). Catalytic efficiency (Eff=kcat/KM) of ASNPwt and F290K variant was determined with both sucrose (D=Donor) and α-D-GlcpNAc-OAll (A=Acceptor) as variable substrates. […] For each experiment, the reaction velocity corresponding to the acceptor glucosylation was determined by the formation of α-D-Glcp-(1→4)-α-D-GlcpNAc-OAll (called Vi(Dp2)), corresponding to the kinetics of the reaction of interest.
Initial velocities were fitted to the Michaelis-Menten equation using Sigma-Plot. As saturation was not achieved with the mutant, efficiency was calculated by linear regression analysis of the velocity versus substrate concentration plot. […]

Assay [2] relates to Neisseria polysaccharea amylosucrase 1G5A, wild type (wtAS, ASNPwt), SEQ ID NO: 13. As to conditions: sucrose donor, data from ref. 83; cited from earlier work.
The target of assay [3] is Neisseria polysaccharea amylosucrase 1G5A (parent SEQ ID NO: 13) variant A289P-F290I (Neisseria polysaccharea, UniProt Q9ZEU2, A297P/F298I/G545D). As to the kind of experiment: Kinetic parameters towards sucrose donor, double mutant A289P-F290I. The class given is biochemical. As to conditions: sucrose donor (0-500 mM); Eadie-Hofstee plot; 30° C., pH 7.0. As to the method: (§1) The double mutants A289P-F290C, A289P-F290I and A289P-F290L were produced and purified, as previously described in Example 1-1. The protein content was determined by the Nanodrop ND-1000 spectrophotometer. These mutants were tested on sucrose alone or supplemented with α-D-GlcpNAc-OAll acceptor, and compared to wtAS and F290K. Assays were performed at 30° C. in 50 mM Tris-HCl buffer, pH=7.0.
(§2) Enzyme assays were carried out in a total volume of 2 mL containing pure enzyme (0.073 mg, 0.153 mg and 0.092 mg when using A289P-F290C, A289P-F2901 and A289P-F290L, respectively).
(§3) Kinetic studies of AS variants were performed in the presence of sucrose (0-500 mM). At regular time intervals (2-5 min), aliquots (200 μL) were removed, heated (95° C., 2 min) and centrifuged (18000 g, 5 min) All the samples were filtered on a 0.22 μm membrane and analyzed using HPLC material previously described. The initial rate of sucrose consumed, corresponding to the initial rate of fructose released, was expressed in mole of fructose released per minute and per gram of enzyme. The kinetic parameters kcat and Km were calculated using Eadie-Hofstee plot.

The target in assay [4] is Neisseria polysaccharea amylosucrase 1G5A (parent SEQ ID NO: 13) variant A289P-F290L (Neisseria polysaccharea, UniProt Q9ZEU2, A297P/F298L/G545D). The assay can be described thus: Kinetic parameters towards sucrose donor, double mutant A289P-F290L. It is filed as biochemical. As to conditions: sucrose donor (0-500 mM); Eadie-Hofstee plot; 30° C., pH 7.0. How it is done:
as §1, §2, §3

In assay [5] the target is Neisseria polysaccharea amylosucrase 1G5A (parent SEQ ID NO: 13) variant A289P-F290C (Neisseria polysaccharea, UniProt Q9ZEU2, A297P/F298C/G545D). The assay can be described thus: Kinetic parameters towards sucrose donor, double mutant A289P-F290C. The class given is biochemical. As to conditions: sucrose donor (0-500 mM); Eadie-Hofstee plot; 30° C., pH 7.0. How it is done:
as §1, §2, §3

Broadly, the Km is the concentration of substrate that gives half-maximal velocity. The term kcat denotes the maximal rate divided by the concentration of active sites. Turning to `OC[C@H]1O[C@@](CO)(O[C@H]2O[C@H](CO)[C@@H](O)[C@H](O)[C@H]2O)[C@@H](O)[C@@H]1O` [sucrose], in assay [1], the affinity for sucrose entry was “poor affinity for sucrose”. Further, the Km in assay [2] was 50.2 mM. For the same compound, the catalytic constant (kcat) in assay [2] is 1.3 s⁻¹; in assay [3] it was 1.1 s⁻¹; in assay [4], 2.1 s⁻¹; in assay [5] it was 2.8 s⁻¹.
